Source: BindingDB's records for doi:10.1021/jm300804e (National Institute of Allergy and Infectious Diseases, 2012)
pEC50: −log10 of the molar value.

Legend:
[1] = Inhibition of Bacillus anthracis Protective antigen-mediated cytotoxicity in RAW264.7 cells compound co-treated for 5 hrs with antigen by MTT assay in presence of lethal factor
[2] = Inhibition of Bacillus anthracis Protective antigen-mediated cytotoxicity in HT1080 cells compound co-treated for 5 hrs with antigen measured after 48 hrs by MTT assay in presence of FP59
[3] = Inhibition of Bacillus anthracis Protective antigen-mediated cytotoxicity in RAW264.7 cells compound co-treated for 5 hrs with antigen measured after 48 hrs by MTT assay in presence of FP59
[4] = Inhibition of matrix metalloprotease activated Bacillus anthracis Protective antigen-mediated cytotoxicity in HT1080 cells compound co-treated for 5 hrs with antigen measured after 48 hrs by MTT assay in presence of FP59

Compound | pEC50 [1] | pEC50 [2] | pEC50 [3] | pEC50 [4]
NC(=O)c1ccccc1NC(=O)c1ccc(C(=O)Nc2ccccc2C(N)=O)cc1 | 5.52 | 6.00 | 6.00 | 6.00
Oc1ccccc1/C=N/c1ccc(Cc2ccc(/N=C/c3ccccc3O)c(O)c2)cc1O | 5.52 | 6.00 | 6.00 | 6.00
